Reference: US8916597B2, “Use of pyraclostrobin as safener for triticonazole for controlling harmful fungi” (BASF SE, priority 2005, dated 2014)

System: bentgrass
Experiment: Seed treatment of bentgrass: ground coverage by emerged plants (safener action)
Format: in vivo
Protocol: Seeds were treated with the two active compounds individually or with mixtures of both active compounds, and the development of the plants was then observed. When the mixtures were used, the negative effects of one or both mixing partners in the case of individual application were, if at all, observed at a reduced level.
Seeds of bentgrass were seed-treated with the products and concentrations listed. Triticonazol and Pyraclostrobin were used as 200 g/l FS-formulation.
Treated sees were planted at the day of treatment and then kept under humid conditions in the greenhouse. 9 days after plating the ground coverage by emerged plants were estimated in percentage.

With `COC(=O)N(OC)c1ccccc1COc1ccn(-c2ccc(Cl)cc2)n1` [Pyraclostrobin, pyraclostrobin] as the compound, how does the “% covered ground” value (10 g a.i./100 kg seed of each active compound (200 g/l FS-formulation), greenhouse, humid conditions, ground coverage by emerged plants estimated 9 days after planting, untreated 8.5%) read?
The value was 13.3%.

And the “safener action: negative effect of triticonazole on plant development” value (mixture versus individual application)?
The value was “negative effect of TTZ can be compensated”.
